pIC50: −log10 of the molar value. Calls of active or inactive are those of the source. The rule behind the calls is not given here. Where a SMILES comes first, the peptide text is derived from it. The star is where a group is joined. Cbz = O=C(OCc1ccccc1)*
Experiments:
[1] = Therapeutic index, ratio of IC50 for cytotoxicity against human MCF10A cells to IC50 for antiproliferative activity against human MCF7 cells; assay type: toxicity, cell-based; details: read-out: Ratio IC50
MCF7 = test: Antiproliferative activity against human MCF7 cell incubated for 72 hrs by MTT assay; assay type: functional, cell-based; details: MCF7, 72 h
[2] = molecular target: T1, Estrogen receptor (Homo sapiens) (UniProt P03372); test: Induction of ERalpha degradation in human MCF7 cells assessed as decrease in ERalpha protein expression at 5 uM incubated for 24 hrs by Western blot analysis relative to control; assay type: cell-based; set-up: scale not given: the % may be the effect or the level left
T1 sequence (whole entry): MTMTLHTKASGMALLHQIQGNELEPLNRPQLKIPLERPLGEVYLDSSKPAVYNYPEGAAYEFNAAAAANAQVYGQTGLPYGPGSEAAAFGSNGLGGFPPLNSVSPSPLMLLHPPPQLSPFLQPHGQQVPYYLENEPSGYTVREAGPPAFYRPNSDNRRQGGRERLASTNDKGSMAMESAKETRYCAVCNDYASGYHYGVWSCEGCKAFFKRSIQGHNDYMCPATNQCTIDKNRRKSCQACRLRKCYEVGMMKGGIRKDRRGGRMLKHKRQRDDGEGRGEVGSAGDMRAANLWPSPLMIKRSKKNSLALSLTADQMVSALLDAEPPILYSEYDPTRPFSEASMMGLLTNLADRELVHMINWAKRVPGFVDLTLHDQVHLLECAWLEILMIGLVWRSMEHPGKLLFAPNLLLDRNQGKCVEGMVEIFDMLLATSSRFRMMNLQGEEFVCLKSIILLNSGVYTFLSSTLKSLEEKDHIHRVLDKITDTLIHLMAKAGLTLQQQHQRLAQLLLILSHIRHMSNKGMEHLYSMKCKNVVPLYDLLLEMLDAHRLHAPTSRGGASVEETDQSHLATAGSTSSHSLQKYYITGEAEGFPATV

[3] = molecular target: Estrogen receptor beta (Homo sapiens) (UniProt Q92731); test: Binding affinity to ERbeta (unknown origin) by competitive fluorometric receptor binding assay relative to estradiol
[4] = molecular target: T1, Estrogen receptor (Homo sapiens); test: Binding affinity to ERalpha (unknown origin) by competitive fluorometric receptor binding assay relative to estradiol
MCF-10A = test: Cytotoxicity against human MCF10A cell incubated for 72 hrs by MTT assay; assay type: cell-based
[5] = molecular target: T1, Estrogen receptor (Homo sapiens); test: Induction of ERalpha degradation in human MCF7 cells assessed as decrease in ERalpha protein expression at 10 uM incubated for 24 hrs by Western blot analysis; assay type: cell-based
[6] = molecular target: T1, Estrogen receptor (Homo sapiens); test: Induction of ERalpha degradation in human MCF7 cells assessed as decrease in ERalpha protein expression at 0.1 to 10 uM incubated for 24 hrs by Western blot analysis; assay type: cell-based
[7] = molecular target: T1, Estrogen receptor (Homo sapiens); test: Induction of ERalpha degradation in human MCF7 cells assessed as decrease in ERalpha protein expression at 1 uM incubated for 24 hrs by Western blot analysis relative to control; assay type: cell-based

Chain of Estrogen receptor beta (Homo sapiens) (Q92731 whole entry): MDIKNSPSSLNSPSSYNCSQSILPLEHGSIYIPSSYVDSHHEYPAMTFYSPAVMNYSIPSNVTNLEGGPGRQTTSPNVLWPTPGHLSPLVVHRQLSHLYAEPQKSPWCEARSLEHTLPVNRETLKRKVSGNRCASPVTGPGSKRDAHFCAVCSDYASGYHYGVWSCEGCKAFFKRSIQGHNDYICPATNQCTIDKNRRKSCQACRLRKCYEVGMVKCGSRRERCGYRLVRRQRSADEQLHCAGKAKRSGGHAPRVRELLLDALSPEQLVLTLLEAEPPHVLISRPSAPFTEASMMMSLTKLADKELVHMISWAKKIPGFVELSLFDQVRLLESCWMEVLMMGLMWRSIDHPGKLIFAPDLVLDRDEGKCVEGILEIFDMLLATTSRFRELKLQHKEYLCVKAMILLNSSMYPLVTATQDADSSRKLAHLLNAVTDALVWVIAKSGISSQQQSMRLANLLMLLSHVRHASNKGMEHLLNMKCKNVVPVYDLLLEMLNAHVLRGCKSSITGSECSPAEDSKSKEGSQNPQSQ

Compound	pIC50 (MCF7)	Activity [2]	relative binding affinity (RBA) [3]	relative binding affinity (RBA) [4]	Activity [5]	Activity [6]	Activity [7]	selectivity ratio [1]	pIC50 (MCF-10A)
CCCCOc1ccc(C2=C(c3ccc(O)cc3)[C@H]3O[C@@H]2C[C@@H]3S(=O)(=O)N(CC(F)(F)F)c2ccc(OC)cc2)cc1 (relative stereo)	5.61	100%	0.27	1.81	–	–	–	32.2	4.11
CCCCOc1ccc(C2=C(c3ccc(O)cc3)[C@H]3C[C@H](S(=O)(=O)N(CC(F)(F)F)c4ccc(OC)cc4)[C@@H]2O3)cc1 (relative stereo)	5.52	100%	0.85	2.11	–	–	–	23.1	4.16
CCCCCCOc1ccc(N(CC)S(=O)(=O)[C@H]2C[C@H]3O[C@@H]2C(c2ccc(O)cc2)=C3c2ccc(O)cc2)cc1 (relative stereo)	5.83	Active	0.14	2.29	–	–	–	24.6	4.44
CCCCCCOc1ccc(C2=C(c3ccc(O)cc3)[C@H]3O[C@@H]2C[C@@H]3S(=O)(=O)N(CC(F)(F)F)c2ccc(OC)cc2)cc1	6.08	100%	0.08	4.43	–	–	–	50.4	4.37
CCCCCCOc1ccc(C2=C(c3ccc(O)cc3)[C@H]3C[C@H](S(=O)(=O)N(CC(F)(F)F)c4ccc(Cl)cc4)[C@@H]2O3)cc1 (relative stereo)	5.54	–	0.04	4.14	–	–	–	19.8	4.24
CCCCCCOc1ccc(C2=C(c3ccc(O)cc3)[C@H]3O[C@@H]2C[C@@H]3S(=O)(=O)N(CC)c2ccccc2)cc1 (relative stereo)	6.01	–	0.53	2.51	–	–	–	43.9	4.37
CCCCCCOc1ccc(C2=C(c3ccc(O)cc3)[C@H]3C[C@H](S(=O)(=O)N(CC)c4ccccc4)[C@@H]2O3)cc1 (relative stereo)	5.46	–	0.35	2.99	–	–	–	> 28.9	< 4.00
CCCCCCCCCCOc1ccc(C2=C(c3ccc(O)cc3)[C@H]3C[C@H](S(=O)(=O)N(CC(F)(F)F)c4ccc(OC)cc4)[C@@H]2O3)cc1 (relative stereo)	4.50	–	0.6	0.85	–	–	–	> 3.1	< 4.00
CCCCCCOc1ccc(C2=C(c3ccc(O)cc3)[C@H]3C[C@H](S(=O)(=O)N(CC(F)(F)F)c4ccc(OC)cc4)[C@@H]2O3)cc1 (relative stereo)	5.94	100%	0.01	8.37	–	–	–	33.9	4.41
CCCCOc1ccc(C2=C(c3ccc(O)cc3)[C@H]3C[C@H](S(=O)(=O)N(CC)c4ccccc4)[C@@H]2O3)cc1 (relative stereo)	5.48	–	0.05	3.26	–	–	–	17.9	4.23
CCCCOc1ccc(C2=C(c3ccc(O)cc3)[C@H]3C[C@H](S(=O)(=O)N(CC(F)(F)F)c4ccc(Cl)cc4)[C@@H]2O3)cc1 (relative stereo)	5.53	–	0.05	4.25	–	–	–	15.5	4.34
COc1ccc(N(CC(F)(F)F)S(=O)(=O)[C@H]2C[C@H]3O[C@@H]2C(c2ccc(O)cc2)=C3c2ccc(O)cc2)cc1 (relative stereo)	5.01	–	0.07	0.74	–	Active	Active	4.2	4.38

More lines, main results first:

pIC50 (MCF7)	Activity [2]	relative binding affinity (RBA) [3]	relative binding affinity (RBA) [4]	Activity [5]	Activity [6]	Activity [7]	Compound	selectivity ratio [1]	pIC50 (MCF-10A)
5.38	Active	0.12	2.02	–	–	–	CCCCCCOc1ccc(N(C)S(=O)(=O)[C@H]2C[C@H]3O[C@@H]2C(c2ccc(O)cc2)=C3c2ccc(O)cc2)cc1 (relative stereo)	7.3	4.52
4.90	100%	0.04	4.29	–	–	–	CCCCCOc1ccc(C2=C(c3ccc(O)cc3)[C@H]3C[C@H](S(=O)(=O)N(CC(F)(F)F)c4ccc(OC)cc4)[C@@H]2O3)cc1 (relative stereo)	7.6	4.01
–	–	–	–	inactive	–	–	CC(C)C[C@@H](C=O)NC(=O)[C@H](CC(C)C)NC(=O)[C@H](CC(C)C)NC(=O)OCc1ccccc1 (Cbz-Leu-Leu-Leu-aldehyde)	–	–
5.23	–	0.02	0.55	–	–	–	CCCCCCCCOc1ccc(C2=C(c3ccc(O)cc3)[C@H]3C[C@H](S(=O)(=O)N(CC)c4ccccc4)[C@@H]2O3)cc1 (racemic)	10	4.23
5.66	–	0.32	1.08	–	–	–	CCCCCCCCOc1ccc(C2=C(c3ccc(O)cc3)[C@H]3C[C@H](S(=O)(=O)N(CC(F)(F)F)c4ccc(OC)cc4)[C@@H]2O3)cc1 (relative stereo)	> 45.2	< 4.00
5.75	100%	0.24	1.53	–	–	–	CCCCCOc1ccc(C2=C(c3ccc(O)cc3)[C@H]3O[C@@H]2C[C@@H]3S(=O)(=O)N(CC(F)(F)F)c2ccc(OC)cc2)cc1 (relative stereo)	> 56.1	< 4.00

Source: ChEMBL document CHEMBL4359894, “Novel class of 7-Oxabicyclo[2.2.1]heptene sulfonamides with long alkyl chains displaying improved estrogen receptor α degradation activity” (Eur J Med Chem, 2019)
